Paper PMC4604124, “In Vitro Characterization of the Pharmacological Properties of the Anti-Cancer Chelator, Bp4eT, and Its Phase I Metabolites” (PLoS ONE, 2015)
Values joined by “and” are separate entries in the source; they are usually repeats but may differ in a detail not shown here. Equal values may be shown once.

Assays:
caspase 9 = experiment: Caspase activity, luminescent kit, caspase 9; assay type: cell-based, human; details: for kaspáza 9, raw signal / kaspáza 9, signal / viabilita: individual experiments by date; for kaspáza 9, raw signal, průměry / kaspáza 9, % kontroly / kaspáza 9, signal / viabilita, průměry: mean; for kaspáza 9, % kontroly / kaspáza 9, signal / viabilita / kaspáza 9, signal / viabilita, průměry: normalised to viability
Experimental: To assess the effect of the compounds on caspase activity, MCF-7 cells were incubated with 100 nM Bp4eT or its metabolites for 3, 24 or 72 h/37°C in 96-well plates, as described above. The cells were then lysed by adding 100 μL of cold lysis buffer (100 mM HEPES, 10 mM CHAPS, 10 mM D-L-dithiothreitol, pH 7.4) to 100 μL of medium in each well. Lysates were immediately frozen at -80°C. Thawed lysates were used to assess caspase activity using luminescent kits for caspases 3/7, 8 and 9 (Promega, Madison, WI, USA). The luminescence was measured using the Tecan Infinite 200M plate reader. Caspase activity in the experimental groups was corrected according to the cellular viability of each group and expressed as a percentage of activity of the untreated control (100%).

[1] = Ascorbate oxidation assay (redox activity of iron complexes); assay type: biochemical;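 for %Fe 30min (ascorbate oxidation, Fe 100%), průměr: IBE 3 means excess free chelator over iron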;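 for %Fe 30min: ascorbate oxidation as % of the Fe control (Fe 100%): IBE 0.1 means iron-binding equivalents with iron in excess over chelator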
Experimental: The ascorbate oxidation assay was used to assess the redox activity of the iron complexes of the chelators using an established protocol. In brief, 100 μM ascorbic acid was prepared immediately prior to the experiment and incubated either alone or in the presence of 10 μM FeCl3 in a 50-fold molar excess (500 μM) of citrate and the chelators. Chelators were assayed at iron-binding equivalents (IBE) of 0.1 (excess of iron), 1 (fully coordinated iron—chelator complexes) and 3 (excess of free chelator). […] The decrease of absorbance between the two time points was calculated and expressed as a percentage of control without the chelator.

[2] = sheet IBE 1, time 10, replicates
[3] = sheet IBE 1, time 20, replicates
[4] = sheet IBE 1, time 30, replicates

CCNC(=O)NN=C(c1ccccc1)c1ccccn1 [E-Bp4eS, 2-benzoylpyridine 4-ethylsemicarbazone]
kaspáza 9, raw signal (caspase 9; 3 hodiny): 5048 and 2733 and 3173 and 2706.5
kaspáza 9, raw signal, průměry (caspase 9; 3 hodiny): 3415.12
kaspáza 9, % kontroly (caspase 9; 3 hodiny): 105.55 % kontroly
kaspáza 9, signal / viabilita (caspase 9; 3 hodiny): 51.4121 and 27.8346 and 32.3159 and 27.5647
kaspáza 9, signal / viabilita, průměry (caspase 9; 3 hodiny): 34.7818
kaspáza 9, raw signal (caspase 9; 24 hodin): 3856 and 3865 and 5378.5 and 4257
kaspáza 9, raw signal, průměry (caspase 9; 24 hodin): 4339.12
kaspáza 9, % kontroly (caspase 9; 24 hodin): 110.34 % kontroly
kaspáza 9, signal / viabilita (caspase 9; 24 hodin): 38.7665 and 38.857 and 54.073 and 42.798
kaspáza 9, signal / viabilita, průměry (caspase 9; 24 hodin): 43.6236
kaspáza 9, raw signal (caspase 9; 72 hodin): 22791 and 20686 and 21610 and 23932
kaspáza 9, raw signal, průměry (caspase 9; 72 hodin): 22254.8
kaspáza 9, % kontroly (caspase 9; 72 hodin): 104.60 % kontroly
kaspáza 9, signal / viabilita (caspase 9; 72 hodin): 233.013 and 211.492 and 220.939 and 244.678
kaspáza 9, signal / viabilita, průměry (caspase 9; 72 hodin): 227.53
%Fe 30min: ascorbate oxidation as % of the Fe control (Fe 100%) ([1]; IBE 0.1, 30 min, mean (průměr)): 110.6%
Change of absorbance after subtraction of time 0 (odečet 0) ([1]; IBE 0.1, time 10, mean (průměr)): -0.03606
Change of absorbance after subtraction of time 0 (odečet 0) ([1]; IBE 0.1, time 20, mean (průměr)): -0.07143
Change of absorbance after subtraction of time 0 (odečet 0) ([1]; IBE 0.1, time 30, mean (průměr)): -0.1048
Absorbance (ascorbate, λ = 265 nm) ([1]; IBE 0.1, čas 0 (time 0), mean (průměr)): 0.8403
Absorbance (ascorbate, λ = 265 nm) ([1]; IBE 0.1, čas 10 (time 10), mean (průměr)): 0.8042
Absorbance (ascorbate, λ = 265 nm) ([1]; IBE 0.1, čas 20 (time 20), mean (průměr)): 0.7689
Absorbance (ascorbate, λ = 265 nm) ([1]; IBE 0.1, čas 30 (time 30), mean (průměr)): 0.7355
Absorbance (ascorbate, λ = 265 nm) ([1]; IBE 0.1, čas 30 (time 30), single wells): 0.7395 and 0.7451 and 0.7441 and 0.7317 and 0.7361 and 0.735 and 0.7279 and 0.7282
%Fe 30min (ascorbate oxidation, Fe = 100%), průměr (mean) ([1]; sheet IBE 1, 30min, Fe 100%, mean): 115.7%
%Fe 30min (ascorbate oxidation, Fe = 100%), single replicates ([1]; sheet IBE 1, 30min, Fe 100%, replicates): 118.6% and 122% and 108.4% and 125.1% and 134.4% and 115.2% and 110.6% and 115.1% and 91.71%
raw reading at čas 0 (time 0), průměr (mean) ([1]; sheet IBE 1, time 0, mean of 9 readings): 0.822
raw reading at čas 0 (time 0), single replicates ([1]; sheet IBE 1, time 0, replicates of 2014-03-24 (two runs) and 2014-03-25): 0.8574 and 0.8322 and 0.8144 and 0.8238 and 0.8106 and 0.8047 and 0.8172 and 0.7979 and 0.8393
odečet 0 (reading minus time 0 reading) at čas 10, průměr (mean) ([1]; sheet IBE 1, time 10, mean): -0.03765
raw reading at čas 10 (time 10), průměr (mean) ([1]; sheet IBE 1, time 10, mean of 9 readings): 0.7843
odečet 0 (reading minus time 0 reading) at čas 10, single replicates [1, 2]: -0.03642 and -0.03472 and -0.03462 and -0.04217 and -0.04047 and -0.03637 and -0.03597 and -0.05027 and -0.02787
raw reading at čas 10 (time 10), single replicates [1, 2]: 0.778 and 0.7891 and 0.776 and 0.7626 and 0.7768 and 0.7616 and 0.8033 and 0.8071 and 0.8043
odečet 0 (reading minus time 0 reading) at čas 20, průměr (mean) ([1]; sheet IBE 1, time 20, mean): -0.07141
raw reading at čas 20 (time 20), průměr (mean) ([1]; sheet IBE 1, time 20, mean of 9 readings): 0.7506
odečet 0 (reading minus time 0 reading) at čas 20, single replicates [1, 3]: -0.07064 and -0.07124 and -0.06354 and -0.07877 and -0.08537 and -0.07037 and -0.07092 and -0.07622 and -0.05562
raw reading at čas 20 (time 20), single replicates [1, 3]: 0.7438 and 0.7526 and 0.7471 and 0.726 and 0.7319 and 0.7276 and 0.7684 and 0.7812 and 0.7766
odečet 0 (reading minus time 0 reading) at čas 30, průměr (mean) ([1]; sheet IBE 1, time 30, mean): -0.1028
raw reading at čas 30 (time 30), průměr (mean) ([1]; sheet IBE 1, time 30, mean of 9 readings): 0.7192
odečet 0 (reading minus time 0 reading) at čas 30, single replicates [1, 4]: -0.1024 and -0.1054 and -0.09363 and -0.1081 and -0.1161 and -0.09952 and -0.1043 and -0.1086 and -0.08655
raw reading at čas 30 (time 30), single replicates [1, 4]: 0.712 and 0.7184 and 0.717 and 0.6966 and 0.7011 and 0.6984 and 0.735 and 0.7488 and 0.7457
%Fe 30min (ascorbate oxidation, Fe 100%), průměr ([1]; sheet IBE 3, 30min, Fe alone = 100%, mean (průměr) of the 9 replicates): 117.9%
